Test results taken from patent US20170137387A1, “PHARMACOLOGICALLY ACTIVE QUINAZOLINEDIONE DERIVATIVES” (ORION CORPORATION, priority 2014, published 2017).

Key:
[1] = target: T1, human GABAB1 and GABAB2 receptor subunits (Homo sapiens, UniProt O75899+Q9UBS5); test: Agonism and positive allosteric modulator pharmacology in vitro, two-addition FLIPR calcium assay; assay type: cell-based; settings: CHO cells co-expressing Galpha16; for IA (GABAB agonism): agonism efficacy at 30 μM / GABA efficacy at 30 μM; for IA (GABAB positive allosteric modulation): positive allosteric modulator efficacy at 10 μM (with EC10.5 GABA) / GABA efficacy at 30 μM
T1 construct: expressed in transfected cells; host or cells: CHO cells
T1 sequence (Q9UBS5 15-961 limits assumed): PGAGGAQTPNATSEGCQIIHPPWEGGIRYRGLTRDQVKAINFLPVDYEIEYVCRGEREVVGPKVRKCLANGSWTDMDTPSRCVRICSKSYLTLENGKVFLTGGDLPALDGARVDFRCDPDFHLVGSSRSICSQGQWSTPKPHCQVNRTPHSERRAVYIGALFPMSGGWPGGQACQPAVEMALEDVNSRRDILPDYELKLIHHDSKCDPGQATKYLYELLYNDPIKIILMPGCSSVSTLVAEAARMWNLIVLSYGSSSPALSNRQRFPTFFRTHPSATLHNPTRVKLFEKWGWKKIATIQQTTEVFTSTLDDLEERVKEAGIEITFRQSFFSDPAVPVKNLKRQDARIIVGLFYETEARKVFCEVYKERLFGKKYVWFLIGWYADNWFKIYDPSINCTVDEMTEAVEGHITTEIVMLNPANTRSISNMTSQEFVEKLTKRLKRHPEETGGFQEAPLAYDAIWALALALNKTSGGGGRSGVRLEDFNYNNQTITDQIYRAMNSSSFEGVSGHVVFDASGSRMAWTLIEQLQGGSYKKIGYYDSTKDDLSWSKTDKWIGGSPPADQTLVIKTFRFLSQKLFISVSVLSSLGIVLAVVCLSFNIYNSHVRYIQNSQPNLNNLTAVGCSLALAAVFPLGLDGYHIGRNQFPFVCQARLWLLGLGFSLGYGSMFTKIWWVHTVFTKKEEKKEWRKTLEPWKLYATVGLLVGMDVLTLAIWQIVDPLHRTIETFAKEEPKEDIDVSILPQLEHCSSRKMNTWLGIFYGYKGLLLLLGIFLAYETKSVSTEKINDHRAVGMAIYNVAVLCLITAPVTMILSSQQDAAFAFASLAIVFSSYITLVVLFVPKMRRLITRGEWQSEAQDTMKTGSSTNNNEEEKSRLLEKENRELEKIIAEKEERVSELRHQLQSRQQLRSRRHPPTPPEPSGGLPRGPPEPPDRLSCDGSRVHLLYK
T1 sequence (O75899 42-941): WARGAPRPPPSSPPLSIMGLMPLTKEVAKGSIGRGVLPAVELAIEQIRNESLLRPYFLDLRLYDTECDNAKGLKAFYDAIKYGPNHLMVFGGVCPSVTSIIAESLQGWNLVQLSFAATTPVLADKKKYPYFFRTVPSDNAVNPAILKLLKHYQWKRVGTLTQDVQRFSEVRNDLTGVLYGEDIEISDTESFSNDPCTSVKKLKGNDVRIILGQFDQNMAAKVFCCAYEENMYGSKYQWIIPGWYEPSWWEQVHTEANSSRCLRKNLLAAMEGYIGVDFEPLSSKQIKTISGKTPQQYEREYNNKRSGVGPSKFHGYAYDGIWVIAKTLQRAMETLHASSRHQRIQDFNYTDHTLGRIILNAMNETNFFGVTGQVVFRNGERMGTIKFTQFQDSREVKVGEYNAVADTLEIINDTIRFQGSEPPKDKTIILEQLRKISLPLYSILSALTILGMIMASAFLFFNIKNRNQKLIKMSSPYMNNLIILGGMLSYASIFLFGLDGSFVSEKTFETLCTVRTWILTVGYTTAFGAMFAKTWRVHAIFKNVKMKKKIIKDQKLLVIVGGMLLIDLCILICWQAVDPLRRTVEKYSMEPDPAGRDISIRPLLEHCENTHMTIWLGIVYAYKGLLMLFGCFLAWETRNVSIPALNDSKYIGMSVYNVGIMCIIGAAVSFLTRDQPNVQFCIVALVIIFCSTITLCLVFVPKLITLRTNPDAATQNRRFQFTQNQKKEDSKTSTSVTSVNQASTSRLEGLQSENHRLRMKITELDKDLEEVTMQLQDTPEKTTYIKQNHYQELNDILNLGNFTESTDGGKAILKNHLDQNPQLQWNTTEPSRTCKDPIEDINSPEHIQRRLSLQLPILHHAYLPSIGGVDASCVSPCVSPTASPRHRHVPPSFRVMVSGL
Description: (§1) CHO cells expressing the human GABAB1 and GABAB2 receptor subunits co-expressing promiscuous Galpha16 proteins to force couple the receptor to the intracellular calcium signalling pathway were used to study GABAB pharmacology in vitro. The cells were maintained at 37° C. in a 5% CO2 95% air atmosphere in HAM F-12 medium supplemented with 10% foetal bovine serum and selection antibiotics.
(§2) The day before the experiment the cells were detached and plated into black-walled clear bottom 384-well plates at a cell density of 20 000 cells per well. The growth medium was removed and the cells were incubated with FLIPR Calcium 5 Assay reagent (Molecular Devices, CA, USA) diluted 1:1 in Probenecid-Ringer for 1 h at 37° C. in dark. Probenecid-Ringer buffer consisted of 150 mM NaCl, 3 mM KCl, 1.2 mM MgCl2, 1 mM CaCl2, 5 mM glucose, 20 mM 2-(4-(2-hydroxyethyl)piperazin-1-yl)ethanesulfonic acid (HEPES), and 2.5 mM Probenecid (pH 7.4 adjusted with 1.0 M NaOH and osmolarity adjusted to […]). Compounds were dissolved in Probenecid-Ringer. […] The samples were excited at 470-495 nm and emission was detected at 515-575 nm. All experiments were performed at 37° C.
A two-addition protocol was used to determine agonism and positive allosteric modulator pharmacology in the same assay using a kinetic read out. Agonism pharmacology of compounds was studied in the first addition in the concentration range 0.123-30 μM in quadruplicate at each concentration. In the second addition, a low (EC10.5) concentration of GABA was applied to detect the positive allosteric modulator pharmacology of the compounds to be studied. The EC10.5 concentration was determined from the GABA EC50 value using the formula ECF≈(F/(100-F))^1/H·EC50, wherein F is the fraction of full response and H is Hill slope.
(§3) Baseline fluorescence minimum was subtracted from maximum for the calculation of agonism and positive allosteric modulator pharmacology. Both in the agonism mode and in the allosteric mode, the efficacy was related to the intrinsic activity (IA) of the endogenous agonist GABA at 30 μM (positive allosteric modulator efficacy at 10 μM/GABA efficacy or agonism efficacy at 30 μM/GABA efficacy). To determine potentiation of GABA dose-response, the compounds, at a concentration of 10 μM diluted in Probenecid-Ringer, were added by FLIPR tetra followed by addition of GABA (diluted in water in the concentration range 0.123-10 μM). The EC50 values were determined using a four-parameter logistic fit (model 205 in ActivityBase XE). The EC50 value of GABA was divided with the EC50 value of GABA in the presence of positive allosteric modulator to determine potentiation of GABA dose-response EC50 value.

[2] = target: T1, human GABAB1 and GABAB2 receptor subunits; test: Potentiation of GABA dose-response, FLIPR calcium assay; assay type: cell-based; settings: compound at 10 μM; EC50 of GABA divided by EC50 of GABA in the presence of positive allosteric modulator
Description: as §1, §2, §3

| IA (GABAB agonism) [1] | IA (GABAB positive allosteric modulation) [1] | Potentiation of GABA (fold) [2] | SMILES |
| --- | --- | --- | --- |
| 0.19 | 0.89 | 42.6 fold | CC(C)(O)Cn1c(=O)n(Cc2ccc(Cl)cc2)c(=O)c2cc(Cl)cc(F)c21 [Example 131, 6-Chloro-3-(4-chlorobenzyl)-8-fluoro-1-(2-hydroxy-2-methylpropyl)quinazoline-2,4(1H,3H)-dione] |
| 0.05 | 0.64 | 19.7 fold | C[C@H](c1ccc(Cl)cc1)n1c(=O)c2ccc(Cl)cc2n(CC2(C)COC2)c1=O [Example 137, (R)-7-Chloro-3-(1-(4-chlorophenyl)ethyl)-1-((3-methyloxetan-3-yl)methyl)quinazoline-2,4(1H,3H)-dione] |
